Test results as given in patent US20230183193A1, “4-DIFLUOROMETHYL BENZOYL AMIDES WITH HERBICIDAL ACTION” (BAYER CROPSCIENCE AKTIENGESELLSCHAFT, priority 2017, published 2023).

Assays:
Assay type in all cases: in vivo
Abutilon theophrasti [1] = test: Pre-emergence herbicidal action, ABUTH; conditions: dosage 320 g/ha, scored visually after 3 weeks vs untreated controls
Method in brief: (§1)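 Percent herbicidal activity rated by eye 3 weeks after pre-emergence soil-surface application, compared with untreated pots. Seeds sat under sandy loam; sprays carried 0.2% wetting agent.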

Alopecurus myosuroides [2] = test: Pre-emergence herbicidal action, ALOMY; conditions: dosage 320 g/ha, scored visually after 3 weeks vs untreated controls
Method in brief: as §1

Amaranthus retroflexus [3] = test: Pre-emergence herbicidal action, AMARE; conditions: dosage 320 g/ha, scored visually after 3 weeks vs untreated controls
Method in brief: as §1

Avena fatua [4] = test: Pre-emergence herbicidal action, AVEFA; conditions: dosage 320 g/ha, scored visually after 3 weeks vs untreated controls
Method in brief: as §1

Cyperus serotinus = test: Pre-emergence herbicidal action, CYPES; conditions: dosage 320 g/ha, scored visually after 3 weeks vs untreated controls
Method in brief: as §1

Matricaria inodora = test: Pre-emergence herbicidal action, MATIN; conditions: dosage 320 g/ha, scored visually after 3 weeks vs untreated controls
Method in brief: as §1

Setaria viridis [5] = test: Pre-emergence herbicidal action, SETVI; conditions: dosage 320 g/ha, scored visually after 3 weeks vs untreated controls
Method in brief: as §1

Stellaria media [6] = test: Pre-emergence herbicidal action, STEME; conditions: dosage 320 g/ha, scored visually after 3 weeks vs untreated controls
Method in brief: as §1

Viola tricolor [7] = test: Pre-emergence herbicidal action, VIOTR; conditions: dosage 320 g/ha, scored visually after 3 weeks vs untreated controls
Method in brief: as §1

Abutilon theophrasti [8] = test: Post-emergence herbicidal action, ABUTH; conditions: 80 g/ha, Table D
Method in brief: (§2)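 Herbicidal effect is rated visually as percent versus untreated plants (100% = dead, 0% = like control) about 3 weeks after spraying. Plants were sown in sandy loam in the greenhouse and sprayed on green parts at the one-leaf stage, 2 to 3 weeks post-sowing.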

Alopecurus myosuroides [9] = test: Post-emergence herbicidal action, ALOMY; conditions: 80 g/ha, Table C
Method in brief: as §2

Amaranthus retroflexus [10] = test: Post-emergence herbicidal action, AMARE; conditions: 80 g/ha, Table D
Method in brief: as §2

Avena fatua [11] = test: Post-emergence herbicidal action, AVEFA; conditions: 80 g/ha, Table C
Method in brief: as §2

Pharbitis purpureum = test: Post-emergence herbicidal action, PHBPU; conditions: 80 g/ha, Table D
Method in brief: as §2

Setaria viridis [12] = test: Post-emergence herbicidal action, SETVI; conditions: 80 g/ha, Table C
Method in brief: as §2

Stellaria media [13] = test: Post-emergence herbicidal action, STEME; conditions: 80 g/ha, Table D
Method in brief: as §2

Viola tricolor [14] = test: Post-emergence herbicidal action, VIOTR; conditions: 80 g/ha, Table D
Method in brief: as §2

ECHCG = test: Post-emergence herbicidal action, ECHCG; conditions: 80 g/ha, Table C
Method in brief: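 Weed and crop plants grown in sandy loam in the greenhouse, treated at the one-leaf stage 2–3 weeks after sowing. Damage scored visually after about 3 weeks vs untreated controls (0% = control, 100% = dead).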

SMILES | herbicidal activity ABUTH (Abutilon theophrasti [1]) [%] | herbicidal activity ALOMY (Alopecurus myosuroides [2]) [%] | herbicidal activity AMARE (Amaranthus retroflexus [3]) [%] | herbicidal activity AVEFA (Avena fatua [4]) [%] | herbicidal activity CYPES (Cyperus serotinus) [%] | herbicidal activity MATIN (Matricaria inodora) [%] | herbicidal activity SETVI (Setaria viridis [5]) [%] | Herbicidal activity STEME (Stellaria media [6]) [%] | herbicidal activity VIOTR (Viola tricolor [7]) [%] | herbicidal activity ABUTH (Abutilon theophrasti [8]) [%] | herbicidal activity ALOMY (Alopecurus myosuroides [9]) [%] | herbicidal activity AMARE (Amaranthus retroflexus [10]) [%] | herbicidal activity AVEFA (Avena fatua [11]) [%] | Herbicidal activity PHBPU (Pharbitis purpureum) [%] | herbicidal activity SETVI (Setaria viridis [12]) [%] | Herbicidal activity STEME (Stellaria media [13]) [%] | herbicidal activity VIOTR (Viola tricolor [14]) [%] | Herbicidal activity ECHCG (ECHCG) [%]
CCc1c(C(=O)Nc2nnnn2C)ccc(C(F)F)c1SC [Example 1-13] | 100 | 100 | 100 | 100 | 100 | 100 | 100 | 100 | 100 | 100 | 90 | 100 | 100 | 100 | 90 | 100 | 100 | 90
CCn1nnnc1NC(=O)c1ccc(C(F)F)c(SC)c1C1CC1 [Example 2-25] | 100 | 100 | 100 | 100 | 100 | 100 | 100 | 100 | 100 | 100 | 100 | 100 | 100 | 100 | 100 | 100 | 100 | 100
CCc1c(C(=O)Nc2nnnn2CC)ccc(C(F)F)c1S(C)(=O)=O [Example 2-15] | 100 | 100 | 100 | 100 | 100 | 100 | 100 | 100 | 100 | 100 | 80 | 100 | 100 | 80 | 100 | 100 | 100 | 90
Cn1nnnc1NC(=O)c1ccc(C(F)F)c(S(C)(=O)=O)c1Br [Example 1-63] | 100 | 100 | 100 | 100 | 100 | 100 | 100 | 100 | 100 | 100 | 90 | 100 | 100 | 100 | 100 | 100 | 100 | 90
